Measured values taken from patent US6350776B1, “Method of treating proliferative disease with lycopene and alpha-tocopherol” (priority 1999, dated 2002).

Key:
hepatoma cells (HepG2) = assay: Cell proliferation assay (thymidine incorporation), HepG2; assay type: cell-based, human; conditions: 50 μM alpha-tocopherol, lycopene 0 μM, 24 hours, vs solvent control
Procedure: (§1) Culture media and antibiotics were from Gibco (Grand Island, N.Y., USA). Fetal calf serum was from PAA Labor (Linz, Austria), Human prostate carcinoma, androgen insensitive, cell lines DU-145 and PC-3, colon carcinoma cell line Caco-2, hepatoma cell line HepG2, and rat aortic smooth muscle cell line A7r5 were from American Type Culture Collection (Rockville, Md., USA). DU-146 cells were grown in minimum essential medium (EM), PC-3 cells in F-12K medium, both containing antibiotics and 10% fetal calf serum (FCS). Caco-2 cells were grown in MEM containing 20% FCS. HepG2 cells were grown in MEM containing 10% FCS, and A7r5 cells were grown in DMEM containing 10% FCS.
(§2) Cell proliferation was assayed using two methods, cell count and thymidine incorporation:
(§3) Thymidine incorporation. Colon carcinoma cells (Caco-2) and hepatoma cells (HepG2) seeded into 6 multiwell plates (30,000 cells/well) after treatment were pulsed with [^3H] thymidine (0.5 μCi per well) for two hours. […] The radioactivity incorporated into the acid-insoluble material was determined in a liquid scintillation analyzer.
(§4) The values in Table 1 are expressed as percent of inhibition of proliferation as compared to proliferation of control cells treated with solvent alone. […] Proliferation was assessed as indicated in the Materials and Methods. […]

[1] = test system: rat aortic smooth muscle cells (A7r5); assay: Cell proliferation assay (cell count), A7r5; assay type: cell-based; conditions: 50 μM alpha-tocopherol, lycopene 0 μM, 24 hours, vs solvent control
Procedure: Culture media and antibiotics were from Gibco (Grand Island, N.Y., USA). Fetal calf serum was from PAA Labor (Linz, Austria), Human prostate carcinoma, androgen insensitive, cell lines DU-145 and PC-3, colon carcinoma cell line Caco-2, hepatoma cell line HepG2, and rat aortic smooth muscle cell line A7r5 were from American Type Culture Collection (Rockville, Md., USA). DU-146 cells were grown in minimum essential medium (EM), PC-3 cells in F-12K medium, both containing antibiotics and 10% fetal calf serum (FCS). Caco-2 cells were grown in MEM containing 20% FCS. HepG2 cells were grown in MEM containing 10% FCS, and A7r5 cells were grown in DMEM containing 10% FCS. Cell proliferation was assayed using two methods, cell count and thymidine incorporation: Cell count. Cells were seeded into 6-multiwell plates (20,000 cells/well). When cells reached approximately 50% confluence, the indicated concentrations of the compounds were added. THF was added to control cells to account for the effect of the solvent in the compound solutions. Cells were washed, trypsinized, resuspended and counted in duplicate at the indicated times by trypan blue dye exclusion with a hemocytometer. […] The values in Table 1 are expressed as percent of inhibition of proliferation as compared to proliferation of control cells treated with solvent alone. […] Proliferation was assessed as indicated in the Materials and Methods. […]

[2] = test system: colon carcinoma cells (Caco-2); assay: Cell proliferation assay (thymidine incorporation), Caco-2; assay type: cell-based, human; conditions: 50 μM alpha-tocopherol, lycopene 0 μM, 24 hours, vs solvent control
Procedure: as §1, §2, §3, §4

[3] = test system: Prostate cancer cells (DU-145); assay: Cell proliferation assay (cell count), DU-145; assay type: cell-based, human; conditions: for potentiation of the anti-proliferative effect of lycopene: DU-145, 50 μM of the compound with 1 μM lycopene (FIG. 3)
Procedure: Culture media and antibiotics were from Gibco (Grand Island, N.Y., USA). Fetal calf serum was from PAA Labor (Linz, Austria), Human prostate carcinoma, androgen insensitive, cell lines DU-145 and PC-3, colon carcinoma cell line Caco-2, hepatoma cell line HepG2, and rat aortic smooth muscle cell line A7r5 were from American Type Culture Collection (Rockville, Md., USA). DU-146 cells were grown in minimum essential medium (EM), PC-3 cells in F-12K medium, both containing antibiotics and 10% fetal calf serum (FCS). Caco-2 cells were grown in MEM containing 20% FCS. HepG2 cells were grown in MEM containing 10% FCS, and A7r5 cells were grown in DMEM containing 10% FCS. Cell proliferation was assayed using two methods, cell count and thymidine incorporation: Cell count. Cells were seeded into 6-multiwell plates (20,000 cells/well). When cells reached approximately 50% confluence, the indicated concentrations of the compounds were added. THF was added to control cells to account for the effect of the solvent in the compound solutions. Cells were washed, trypsinized, resuspended and counted in duplicate at the indicated times by trypan blue dye exclusion with a hemocytometer. […] The values in Table 1 are expressed as percent of inhibition of proliferation as compared to proliferation of control cells treated with solvent alone. Prostate cancer cells (DU-145), hepatoma cells (HepG2), colon carcinoma cells (Caco-2) and rat aortic smooth muscle cells (A7r5) were treated with different concentrations of lycopene as indicated and 50 μM alpha-tocopherol for 24 hours. […] Proliferation was assessed as indicated in the Materials and Methods. Data are means±SD of five experiments in duplicate.

[4] = test system: prostate carcinoma cell proliferation; conditions: in vitro studies, background; cited from earlier work

Question: Which “percent of inhibition of proliferation” value (hepatoma cells (HepG2)) does the source give for Cc1c(C)c2c(c(C)c1O)CCC(C)(CCCC(C)CCCC(C)CCCC(C)C)O2 (racemic) [Alpha-Tocopherol, DL-alpha-tocopherol] here?
Answer: 5 ± 1%

Question: What about the “percent of inhibition of proliferation” value [1] of the same compound?
Answer: 40 ± 5%

Question: And the “percent of inhibition of proliferation” value [2]?
Answer: 25 ± 3%

Question: What about the “percent of inhibition of proliferation” value ([3]; DU 145, 50 μM alpha-tocopherol, lycopene 0 μM, 24 hours, vs solvent control) of the same compound?
Answer: 40 ± 6%

Question: And the “potentiation of the anti-proliferative effect of lycopene” value (“potentiation” below) [3]?
Answer: potentiates the anti-proliferative effect of lycopene

Question: Which “potentiation” value [3] does the source give for Cc1cc(O)c(C)c2c1O[C@](C)(CCC[C@H](C)CCC[C@H](C)CCCC(C)C)CC2 (racemic) [β-tocopherol, DL-β-tocopherol] here?
Answer: this effect is specific to alpha-tocopherol as compared to other anti-oxidants

Question: For O=C1O[C@H]([C@@H](O)CO)C(O)=C1O [ascorbic acid, L-ascorbic acid], which “potentiation” value [3] is on record?
Answer: this effect is specific to alpha-tocopherol as compared to other anti-oxidants

Question: With CC(C)=CCC/C(C)=C/C=C/C(C)=C/C=C/C(C)=C/C=C/C=C(C)/C=C/C=C(C)/C=C/C=C(\C)CCC=C(C)C [lycopene] as the compound, how does the “concentrations with inhibitory effect on prostate carcinoma cell proliferation” value [4] read?
Answer: ≥ 50 µM

Question: Which “potentiation” value [3] does the source give for CC(C)(Sc1cc(C(C)(C)C)c(O)c(C(C)(C)C)c1)Sc1cc(C(C)(C)C)c(O)c(C(C)(C)C)c1 [probucol] here?
Answer: this effect is specific to alpha-tocopherol as compared to other anti-oxidants
